Data taken from patent USRE50050E1, “Pyrimidinedione compounds” (MyoKardia, Inc., priority 2013, dated 2024).

What follows are compounds tested against T1, bovine cardiac myosin (Bos taurus, UniProt Q9BE39) (assay: Myosin inhibition assay (PK/LDH-coupled ATPase, bovine cardiac myofibrils)). Settings: bovine cardiac myofibrils, calcium giving 50% activation (pCa50); read-out: Biochemical Activity (pCa50).
T1 construct: The source of cardiac myosin was from bovine heart in the form of skinned myofibrils; from tissue; host or cells: bovine heart, skinned myofibrils
T1 sequence (Q9BE39 whole entry): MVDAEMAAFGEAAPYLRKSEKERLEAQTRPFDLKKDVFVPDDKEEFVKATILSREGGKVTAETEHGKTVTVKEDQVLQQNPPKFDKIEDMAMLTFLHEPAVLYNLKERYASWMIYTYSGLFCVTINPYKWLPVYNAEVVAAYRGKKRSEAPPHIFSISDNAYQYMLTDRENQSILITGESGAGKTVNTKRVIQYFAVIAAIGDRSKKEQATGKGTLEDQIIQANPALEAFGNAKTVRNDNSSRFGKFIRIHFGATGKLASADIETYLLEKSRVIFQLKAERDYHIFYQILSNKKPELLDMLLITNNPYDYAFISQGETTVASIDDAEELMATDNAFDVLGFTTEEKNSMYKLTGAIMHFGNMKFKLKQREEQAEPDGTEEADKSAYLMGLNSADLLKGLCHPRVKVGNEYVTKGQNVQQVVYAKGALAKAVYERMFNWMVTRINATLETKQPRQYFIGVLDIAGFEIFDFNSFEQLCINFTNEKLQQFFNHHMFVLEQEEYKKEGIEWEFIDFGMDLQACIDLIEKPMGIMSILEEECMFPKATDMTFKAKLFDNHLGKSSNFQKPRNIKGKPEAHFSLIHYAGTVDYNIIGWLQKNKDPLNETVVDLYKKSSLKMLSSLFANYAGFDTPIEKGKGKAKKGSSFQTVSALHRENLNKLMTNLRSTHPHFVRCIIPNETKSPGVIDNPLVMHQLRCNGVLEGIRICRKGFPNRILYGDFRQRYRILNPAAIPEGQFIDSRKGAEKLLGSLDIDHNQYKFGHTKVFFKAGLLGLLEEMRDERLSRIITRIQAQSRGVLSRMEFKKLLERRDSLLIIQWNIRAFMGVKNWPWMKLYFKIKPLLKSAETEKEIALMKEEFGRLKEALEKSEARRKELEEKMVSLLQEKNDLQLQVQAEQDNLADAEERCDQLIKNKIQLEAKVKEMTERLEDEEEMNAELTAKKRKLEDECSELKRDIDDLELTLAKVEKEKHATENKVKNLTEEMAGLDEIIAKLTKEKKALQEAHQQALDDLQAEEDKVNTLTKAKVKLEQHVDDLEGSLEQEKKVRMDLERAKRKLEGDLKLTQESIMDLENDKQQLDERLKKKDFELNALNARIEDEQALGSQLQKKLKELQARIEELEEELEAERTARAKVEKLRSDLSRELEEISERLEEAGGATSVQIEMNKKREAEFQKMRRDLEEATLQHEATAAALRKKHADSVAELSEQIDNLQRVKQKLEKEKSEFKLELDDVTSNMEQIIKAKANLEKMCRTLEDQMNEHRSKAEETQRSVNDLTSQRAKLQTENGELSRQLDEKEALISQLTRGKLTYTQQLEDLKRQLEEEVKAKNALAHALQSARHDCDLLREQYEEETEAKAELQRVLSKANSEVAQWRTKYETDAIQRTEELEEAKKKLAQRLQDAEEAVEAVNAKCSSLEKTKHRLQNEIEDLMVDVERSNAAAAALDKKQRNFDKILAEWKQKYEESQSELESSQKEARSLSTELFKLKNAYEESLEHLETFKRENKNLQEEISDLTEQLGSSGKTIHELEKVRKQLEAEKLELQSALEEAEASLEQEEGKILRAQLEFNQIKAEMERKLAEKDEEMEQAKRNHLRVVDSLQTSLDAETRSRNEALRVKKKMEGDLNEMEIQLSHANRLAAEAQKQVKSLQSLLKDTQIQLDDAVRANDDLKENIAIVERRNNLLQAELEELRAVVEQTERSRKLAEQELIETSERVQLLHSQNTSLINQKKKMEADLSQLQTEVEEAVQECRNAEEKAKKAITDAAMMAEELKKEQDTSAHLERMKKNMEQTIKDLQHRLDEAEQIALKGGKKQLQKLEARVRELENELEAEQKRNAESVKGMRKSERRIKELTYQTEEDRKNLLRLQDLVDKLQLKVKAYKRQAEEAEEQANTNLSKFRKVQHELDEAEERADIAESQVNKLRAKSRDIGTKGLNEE
T1 sequence (P85100 whole entry partner): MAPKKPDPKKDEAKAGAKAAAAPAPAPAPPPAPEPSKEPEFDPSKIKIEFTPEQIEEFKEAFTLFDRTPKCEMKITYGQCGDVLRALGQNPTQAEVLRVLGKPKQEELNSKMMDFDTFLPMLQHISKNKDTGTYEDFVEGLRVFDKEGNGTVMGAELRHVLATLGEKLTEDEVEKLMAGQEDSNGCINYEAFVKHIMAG
T1 sequence (Q3SZE5 whole entry partner): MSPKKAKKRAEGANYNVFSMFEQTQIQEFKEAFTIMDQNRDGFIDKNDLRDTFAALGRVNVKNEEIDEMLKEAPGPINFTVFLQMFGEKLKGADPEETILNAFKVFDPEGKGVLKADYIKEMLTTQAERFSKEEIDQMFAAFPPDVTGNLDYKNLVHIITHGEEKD
Type: biochemical
Procedure: Small molecule agents were assessed for their ability to inhibit the enzymatic activity of bovine cardiac myosin using a biochemical assay that couples the release of ADP (adenosine diphosphate) from cardiac myosin to an enzymatic coupling system consisting of pyruvate kinase and lactate dehydrogenase (PK/LDH) and monitoring the absorbance decrease of NADH (at 340 nm) as a function of time. PK converts ADP to ATP (adenosine triphosphate) by converting PEP (phosphoenolpyruvate) to pyruvate. Pyruvate is then converted to lactate by LDH by converting NADH (nicotinamide adenine dinucleotide) to NAD (oxidized nicotinamide adenine dinucleotide). The source of cardiac myosin was from bovine heart in the form of skinned myofibrils. Prior to testing small molecule agents, the bovine myofibrils were assessed for their calcium responsiveness and the calcium concentration that achieves either a 50% (pCa50) or 75% (pCa75) activation of the myofibril system was chosen as the final condition for assessing the inhibitory activity of the small molecule agents. All enzymatic activity was measured in a buffered solution containing 12 mM PIPES (piperazine-N,N′-bis(2-ethanesulfonic acid), 2 mM magnesium chloride at pH 6.8 (PM 12 buffer). Final assay conditions were 1 mg/mL of bovine cardiac myofibrils, 0.4 mM PK/LDH, 50 uM ATP, 0.1 mg/mL BSA (bovine serum albumin), 10 ppm antifoam, 1 mM DTT, 0.5 mM NADH, 1.5 mM PEP at the desired free calcium concentration required to achieve either 50% or 75% activation of the myofibrils.
A dilution series of compound was created in DMSO such that the final desired concentration of compound would be achieved in a volume of 100 μL with a fixed DMSO concentration of 2% (v/v). Typically 2 μL of the dilution series were added to 96 well plate to achieve an 8 or 12 point dose response. Following the addition of 50 μL of a solution containing bovine cardiac myofibrils, PK/LDH and a solution of calcium (that achieved the desired activation), the enzymatic reaction was started with the addition of 50 μL of a solution containing ATP, PEP and NADH. The reaction progress was followed in a Molecular Devices M5e plate reader at ambient temperature using clear half area plates. The plate reader was configured to read absorbance at 340 nm in kinetics mode for 15 minutes. Data were recorded as the slope of the absorbance response to time. The slopes of the absorbance response as a function of time were normalized to slopes on the plate containing DMSO. This normalized rate was then plotted as a function of small molecule concentration and the data was fitted to a four-parameter fit using GraphPad Prism. The midpoint of this plot is the 1050 and is the concentration at which fifty percent of the total response is inhibited.

SMILES | IC50 [nM]
C[C@H](Nc1cc(=O)n(C2CCC2)c(=O)[nH]1)c1ccc(F)cc1 [Compound 132] | < 1000
C[C@H](Nc1cc(=O)n(C2CCC(F)(F)CC2)c(=O)[nH]1)c1ccccc1 [Compound 82] | < 1000
CC(C)n1c(=O)cc(N[C@@H](C)c2ccccc2Cl)[nH]c1=O [Compound 120] | < 1000
C[C@H](Nc1cc(=O)n([C@@H](C)C(F)(F)F)c(=O)[nH]1)c1ccccc1 [Compound 95] | < 1000
C[C@H](Nc1cc(=O)n(CC(F)F)c(=O)[nH]1)c1ccccc1 [Compound 66, (S)-3-(2,2-difluoroethyl)-6-((1-phenylethyl)amino)pyrimidine-2,4(1H,3H)-dione] | 1000 to 15000
CCn1c(=O)cc(N[C@@H](C)c2ccc(F)c(F)c2)[nH]c1=O [Compound 134] | < 1000
C[C@H](Nc1cc(=O)n([C@@H](C)CO)c(=O)[nH]1)c1ccccc1 [Compound 92] | 1000 to 15000
CC[C@H](Nc1cc(=O)n(CC)c(=O)[nH]1)c1ccccc1 [Compound 36] | 1000 to 15000
Cc1ccccc1[C@H](C)Nc1cc(=O)n(C(C)C)c(=O)[nH]1 [Compound 68, (S)-3-isopropyl-6-((1-(o-tolyl)ethyl)amino)pyrimidine-2,4(1H,3H)-dione] | < 1000
CC(C)n1c(=O)cc(N[C@@H](C)c2cccc(Br)c2)[nH]c1=O [Compound 35] | < 1000
CCCn1c(=O)cc(N[C@@H](C)c2ccc(F)cc2)[nH]c1=O [Compound 136] | < 1000
C[C@H](Nc1cc(=O)n(Cc2ccccc2)c(=O)[nH]1)c1ccccc1 [Compound 57, (S)-3-benzyl-6-((1-phenylethyl)amino)pyrimidine-2,4(1H,3H)-dione] | 1000 to 15000
CC(C)n1c(=O)[nH]c(N[C@@H](C)c2ccc3c(c2)OC(F)(F)O3)c(Cl)c1=O [Compound 128] | 1000 to 15000
CC(C)n1c(=O)cc(N[C@@H](C)c2ccc(O)cc2)[nH]c1=O [Compound 63, (S)-6-((1-(4-hydroxyphenyl)ethyl)amino)-3-isopropylpyrimidine-2,4(1H,3H)-dione] | < 1000
C[C@H](Nc1cc(=O)n(-c2ccccn2)c(=O)[nH]1)c1ccccc1 [Compound 38] | < 1000
C[C@H](Nc1cc(=O)n(CC2CC2)c(=O)[nH]1)c1cccc(Cl)c1 [Compound 127] | < 1000
CC(C)n1c(=O)cc(N[C@@H](CO)c2ccccc2)[nH]c1=O [Compound 93] | 1000 to 15000
C[C@H](Nc1cc(=O)n(C(C)(C)C)c(=O)[nH]1)c1ccccc1 [Compound 101] | 1000 to 15000
CCCn1c(=O)cc(N[C@@H](C)c2cccc(Cl)c2)[nH]c1=O [Compound 130] | < 1000
C[C@H](Nc1cc(=O)n(CC2CC2)c(=O)[nH]1)c1cccc(F)c1 [Compound 125] | < 1000
CC(C)n1c(=O)cc(N[C@@H](C)c2ccc3c(c2)OCO3)[nH]c1=O [Compound 107] | < 1000
C[C@H](Nc1cc(=O)n([C@@H](C)C2CC2)c(=O)[nH]1)c1ccccc1 [Compound 105] | < 1000
CC[C@H](Nc1cc(=O)n([C@@H](C)C(F)(F)F)c(=O)[nH]1)c1ccccc1 [Compound 103] | < 1000

Same assay, conditions: bovine cardiac myofibrils, calcium giving 75% activation (pCa75); read-out: Biochemical Activity (pCa75)

SMILES | IC50 [nM]
COC(=O)N1CCC(n2c(=O)cc(N[C@@H](C)c3ccccc3)[nH]c2=O)CC1 [Compound 13, (S)-methyl 4-(2,6-dioxo-4-(1-phenylethylamino)-2,3-dihydropyrimidin-1(6H)-yl)piperidine-1-carboxylate] | < 1000
C[C@H](Nc1cc(=O)n(C2CCC(F)(F)CC2)c(=O)[nH]1)c1ccccc1 [Compound 82] | < 1000
C[C@H](Nc1cc(=O)n(-c2ccnnc2)c(=O)[nH]1)c1ccccc1 [Compound 73] | 1000 to 15000
C[C@H](Nc1cc(=O)n(C)c(=O)[nH]1)c1ccccc1 [Compound 47] | 1000 to 15000
C[C@H](Nc1cc(=O)n([C@H](C)C(F)(F)F)c(=O)[nH]1)c1ccccc1 [Compound 94] | < 1000
CC(C)n1c(=O)[nH]c(N[C@@H](C)c2ccccc2)c(Br)c1=O [Compound 3, (S)-5-Bromo-3-isopropyl-6-((1-phenylethyl)amino)pyrimidine-2,4(1H,3H)-dione] | < 1000
C[C@H](Nc1cc(=O)n([C@@H](C)C(F)(F)F)c(=O)[nH]1)c1ccccc1 [Compound 95] | < 1000
C[C@H](Nc1cc(=O)n(-c2cnn(C)c2)c(=O)[nH]1)c1ccccc1 [Compound 77] | 1000 to 15000
C[C@H](Nc1cc(=O)n([C@H](C)COCc2ccccc2)c(=O)[nH]1)c1ccccc1 [Compound 53, 3-((R)-1-(benzyloxy)propan-2-yl)-6-(((S)-1-phenylethyl)amino)pyrimidine-2,4(1H,3H)-dione] | 1000 to 15000
C[C@H](Nc1cc(=O)n([C@@H](C)CO)c(=O)[nH]1)c1ccccc1 [Compound 92] | 1000 to 15000
COc1cccc([C@H](C)Nc2cc(=O)n(C(C)C)c(=O)[nH]2)c1 [Compound 21] | < 1000
COC(=O)Cn1c(=O)cc(N[C@@H](C)c2ccccc2)[nH]c1=O [Compound 86] | 1000 to 15000
CC(C)n1c(=O)cc(N[C@@H](C)c2ccccc2C#N)[nH]c1=O [Compound 56, (S)-3-isopropyl-6-((1-(2-cyanophenyl)ethyl)amino)pyrimidine-2,4(1H,3H)-dione] | > 15000
CC(C)n1c(=O)cc(N[C@@H](C)c2cccc(Br)c2)[nH]c1=O [Compound 35] | < 1000
C[C@H](Nc1cc(=O)n(C2CCCCC2)c(=O)[nH]1)c1ccccc1 [Compound 44] | < 1000
C[C@H](Nc1cc(=O)n(-c2ccn(C)n2)c(=O)[nH]1)c1ccccc1 [Compound 39] | < 1000
C[C@H](Nc1cc(=O)n(C2CCN(C(=O)c3ccccc3)CC2)c(=O)[nH]1)c1ccccc1 [Compound 84] | < 1000
CC[C@H](Nc1cc(=O)n(C(C)C)c(=O)[nH]1)c1ccccc1 [Compound 24] | < 1000
CC(C)n1c(=O)cc(N[C@@H](C)Cc2ccncc2)[nH]c1=O [Compound 61, (S)-3-isopropyl-6-((1-(pyridin-4-yl)propan-2-yl)amino)pyrimidine-2,4(1H,3H)-dione] | 1000 to 15000
CC(C)n1c(=O)cc(N[C@@H](C)CCc2ccccc2)[nH]c1=O [Compound 85] | < 1000
C[C@H](Nc1cc(=O)n(CC(F)(F)F)c(=O)[nH]1)c1ccccc1 [Compound 100] | 1000 to 15000
CC[C@@H](C)n1c(=O)cc(N[C@@H](C)c2cccc(OC)c2)[nH]c1=O [Compound 14, 3-(R)-sec-butyl-6-((S)-1-(3-methoxyphenyl)ethylamino)pyrimidine-2,4(1H,3H)-dione] | < 1000
C[C@H](Nc1cc(=O)n(C2CCCC2)c(=O)[nH]1)c1ccccc1 [Compound 80] | < 1000
CC[C@H](Nc1[nH]c(=O)n(C(C)C)c(=O)c1F)c1ccccc1 [Compound 31] | < 1000

SMILES | IC50 [nM]
CC(C)n1c(=O)[nH]c(N[C@@H](C)c2cccc(F)c2)c(F)c1=O [Compound 32] | < 1000
CC(C)n1c(=O)cc(N[C@@H](C)c2cccc(N3CCOC3=O)c2)[nH]c1=O [Compound 43] | < 1000
CC(C)n1c(=O)cc(N[C@@H](C)c2cccc(-n3cncn3)c2)[nH]c1=O [Compound 41] | < 1000
C[C@H](Nc1cc(=O)n(C2CCOCC2)c(=O)[nH]1)c1ccccc1 [Compound 9, (S)-6-((1-phenylethyl)amino)-3-(tetrahydro-2H-pyran-4-yl)pyrimidine-2,4(1H,3H)-dione] | < 1000
C[C@H](Nc1cc(=O)n([C@@H](C)COCc2ccccc2)c(=O)[nH]1)c1ccccc1 [Compound 91] | 1000 to 15000
CC(C)n1c(=O)cc(N[C@@H](C)c2ccccc2F)[nH]c1=O [Compound 26] | < 1000
C[C@H](Nc1cc(=O)n(-c2cnccn2)c(=O)[nH]1)c1ccccc1 [Compound 75] | 1000 to 15000
CCn1c(=O)cc(N[C@@H](C)c2ccccc2)[nH]c1=O [Compound 46] | 1000 to 15000
CC(C)n1c(=O)cc(N[C@@H](C)c2cccc(C(F)(F)F)c2)[nH]c1=O [Compound 55, (S)-3-isopropyl-6-((1-(3-(trifluoromethyl)phenyl)ethyl)amino) pyrimidine-2,4(1H,3H)-dione] | < 1000
C[C@H](Nc1cc(=O)n(-c2ccccn2)c(=O)[nH]1)c1ccccc1 [Compound 38] | < 1000
COc1ccccc1[C@H](C)Nc1cc(=O)n(C(C)C)c(=O)[nH]1 [Compound 22] | 1000 to 15000
C[C@H](Nc1cc(=O)n(-c2cncnc2)c(=O)[nH]1)c1ccccc1 [Compound 74] | 1000 to 15000
CC(C)n1c(=O)cc(N[C@@H](C)c2cccc(Cl)c2)[nH]c1=O [Compound 28] | < 1000
CC(C)n1c(=O)cc(N[C@@H](CO)c2ccccc2)[nH]c1=O [Compound 93] | < 1000
Cc1c(N[C@@H](C)c2ccccc2)[nH]c(=O)n(C(C)C)c1=O [Compound 25] | > 15000
COC[C@H](Nc1cc(=O)n(C(C)C)c(=O)[nH]1)c1ccccc1 [Compound 29] | < 1000
CC(C)n1c(=O)cc(N[C@@H](C)Cc2ccccc2)[nH]c1=O [Compound 90] | 1000 to 15000
CC(C)n1c(=O)cc(N[C@@H](C)c2cccnc2)[nH]c1=O [Compound 76] | 1000 to 15000
COc1cccc([C@@H](Nc2cc(=O)n(C(C)C)c(=O)[nH]2)C2CC2)c1 [Compound 7, (S)-6-((cyclopropyl(3-methoxyphenyl)methyl)amino)-3-isopropylpyrimidine-2,4(1H,3H)-dione] | < 1000
CC(C)n1c(=O)cc(N[C@@H](C)c2cc(F)ccc2F)[nH]c1=O [Compound 34] | < 1000
CC(C)n1c(=O)cc(N[C@H](c2ccccc2)C2CCC2)[nH]c1=O [Compound 8, (S)-6-((Cyclobutyl(phenyl)methyl)amino)-3-isopropylpyrimidine-2,4(1H,3H)-dione] | < 1000
C[C@H](Nc1cc(=O)n(-c2ccno2)c(=O)[nH]1)c1ccccc1 [Compound 40] | < 1000
C[C@H](Nc1cc(=O)n([C@@H]2CCCOC2)c(=O)[nH]1)c1ccccc1 [Compound 79] | 1000 to 15000
CC(C)n1c(=O)cc(N[C@@H](C)c2c(F)cccc2F)[nH]c1=O [Compound 59, (S)-6-((1-(2,6-difluorophenyl)ethyl)amino)-3-isopropylpyrimidine-2,4(1H,3H)-dione] | < 1000

Same assay, conditions: pCa75; assay conducted using 0.5 μM myosin, IC50 values below 1.0 μM are approximate; read-out: IC50 (pCa75)

SMILES | IC50 [nM]
CC(C)n1c(=O)cc(N[C@H](C)c2c(F)cccc2F)[nH]c1=O [Compound 60R, (R)-6-((1-(2,6-difluorophenyl)ethyl)amino)-3-isopropylpyrimidine-2,4(1H,3H)-dione] | > 39200
COc1cccc([C@H](C)Nc2cc(=O)n(C(C)C)c(=O)[nH]2)c1 [Compound 21] | 390
CC(C)n1c(=O)cc(N[C@@H](C)c2c(F)cccc2F)[nH]c1=O [Compound 59, (S)-6-((1-(2,6-difluorophenyl)ethyl)amino)-3-isopropylpyrimidine-2,4(1H,3H)-dione] | 450
